Data: patent publication US20230416801A1, “ANTIMICROBIC SUSCEPTIBILITY TESTING USING RECURRENT NEURAL NETWORKS” (Beckman Coulter, Inc., priority 2020, published 2023)

Columns and labels:
Pseudomonas aeruginosa [1] = assay: Target growth or no growth label determined after 16 hours; assay type: cell-based; set-up: key: a value of 1 could be interpreted as a determination that growth would not be inhibited; a value of 0 could be interpreted as a determination that growth would be inhibited; conditions: growth label after 16 hours
Source text: As an illustration of how these types of training approaches could be applied in practice, consider tables 5-12, below. In those tables, tables 5-9 provides GRU kernel weights, GRU recurrent weights, GRU bias weights, dense kernel weights, and a dense bias weight for a model implemented using the Keras API (an open source project governed by the Keras Special Interest Group and available at https://keras.io) and Tensorflow backend (an open source machine learning platform developed by Google, Inc. and available at https://www.tensorflow.org/) comprising a network cluster with 24 GRUs trained to make MIC determinations at 4, 5 and 6 hours based on training data for 56 microorganism strains when combined with various antimicrobials and the various combinations were labeled with growth or no growth information determined after 16 hours. In particular, table 5 provides a 1×72 array, in which the first 24 values would be mapped to Wz, the second 24 values would be mapped to Wr and the third 24 values would be mapped to Wh in an embodiment following FIG. 19. Table 6 provides a 72×24 array, in which the first 24×24 array (i.e., the first 24 bracketed sets of values) would be mapped to Uz, the next 24×24 array would be mapped to Ur and the third 24×24 array would be mapped to Uh in an embodiment following FIG. 19. Table 7 provides a 1×72 array, in which the first 24 values would be mapped to bz, the second 24 values would be mapped to br and the third 24 values would be mapped to bh in an embodiment following FIG. 19. Table 8 provides a 1×1344 array of values which would be multiplied by the output of the combination function 1806 in the dense layer 1807. Table 9 provides a bias value which would be added to the output of the dense layer 1807 before it was provided to the activation function 1808. Table 10 provides growth/no growth determinations made at 4, 5 and 6 hours by a system trained as described above for Pseudomonas aeruginosa and the drug Ceftazidime. Tables 11-12 provide microorganisms and antimicrobials included in the training data described above and for which the model was confirmed to be effective.

Pseudomonas aeruginosa [2] = assay: Growth/no growth determinations made at 4, 5 and 6 hours by trained recurrent neural network (24 GRU) model from test-well organism counts; assay type: cell-based; conditions: for 4 Hour Call: model output 0-1 at 4 hours; for 5 Hour Call: model output 0-1 at 5 hours; for 6 Hour Call: model output 0-1 at 6 hours
Source text: FIG. 8 provides an illustration of how data that can be used in an optimized AST method 101 can be captured from a test well. Test well 20 is embodied by a “384” style test well, having a clear viewing bottom. The volume of inoculum in test well 20 may be set to 20 microliters to reduce the amount of materials such as bulk diluents required by AST method 101 and/or minimize light artifacts and provide sampling of a consistent number of microbes from the 1:250 dilution of the 0.5 MacFarland inoculum. Decreasing the volume of inoculum in test well 20 generally increases the light artifacts. In some instances, capturing a single vertical plane 103 at 20× objective whereby AST camera 35 is set at 0.33 microns/pixel may be sufficient for sampling the inoculum and ensuring that each individual microbe is recognizable. However, these parameters are configurable and may change as desired by the user or the underlying needs of the system. Capturing three focal sites spaced about 5 microns apart within single vertical plane 103 may also provide a sufficient number of microbes in the sample to count for use in optimized AST method 101. These three focal sites are labeled site 105, site 107, and site 109 in FIG. 8. In an exemplary version of optimized AST method 101, each focal site is approximately 700×700 microns within single vertical plane 103, rather than capturing three sites in three different vertical planes. AST camera 35, optics system 9, and computer 49 are configured to capture an image of each focal site in consecutive time periods, manipulate each of these images, and thereafter use the data derived from these manipulated images to make a MIC determination.
Once data extraction step 117 derives the desired information from segmented image 143, image analysis cycle 102 terminates. Optimized AST method 101 iteratively performs image analysis cycle 102 at set time intervals to determine how the microbes in each test well 20 are changing and reacting to the particular antimicrobic dilution pairing. Further, optimized AST method 101 iteratively performs image analysis cycle 102 on each test well 20 associated with the microbes to determine how the microbes are reacting to each concentration of the antimicrobic dilution. For example, presume the microbes being tested are E. coli bacteria and three test wells 20 are being tested, with each test well 20 having a 20-microliter solution therein. The first test well 20 may contain an antimicrobic dilution of 1 microgram per milliliter (μg/ml), the second test well 20 may contain an antimicrobic dilution of 2 μg/ml, and the third test well 20 may contain an antimicrobic dilution of 4 μg/ml. Optimized AST method 101 performs image analysis cycle 102 on each of the three test wells at each set time interval to determine (a) how each antimicrobic dilution is affecting the microbes; and (b) how each antimicrobic dilution is performing relative to the other antimicrobic dilutions. If the data indicates the 1 μg/ml antimicrobic dilution is as effective as the 2 and 4 μg/ml antimicrobic dilutions at neutralizing the microbes, the 1 μg/ml antimicrobic dilution is the MIC.
In step 163, the MIC is determined. The determination is based on the data collected during each iteration of image analysis cycle 102 for all of the antimicrobic dilutions for a microbial sample as well as for a control well where no antimicrobial agent was present. As described in the following section, this determination may involve processing the collected data with a machine learning model that had previously been trained to make determinations of whether an antimicrobial dilution in a test well would inhibit growth and then determining the MIC based on the test well with the lowest concentration where the machine learning model made a determination that growth would be inhibited. […]

`CC(C)(O/N=C(\C(=O)N[C@@H]1C(=O)N2C(C(=O)[O-])=C(C[n+]3ccccc3)CS[C@H]12)c1csc(N)n1)C(=O)O` [Ceftazidime] showed a Target (Pseudomonas aeruginosa [1]; Dilution 0.03) of 1, a Target (Pseudomonas aeruginosa [1]; Dilution 0.06) of 1 and a Target (Pseudomonas aeruginosa [1]; Dilution 0.12) of 1. It also gave a Target (Pseudomonas aeruginosa [1]; Dilution 0.25) of 1, a Target (Pseudomonas aeruginosa [1]; Dilution 0.5) of 1 and a Target (Pseudomonas aeruginosa [1]; Dilution 1) of 1. It also gave a Target (Pseudomonas aeruginosa [1]; Dilution 2) of 0, a Target (Pseudomonas aeruginosa [1]; Dilution 4) of 0 and a Target (Pseudomonas aeruginosa [1]; Dilution 8) of 0. The Target (Pseudomonas aeruginosa [1]; Dilution 16) was 0, the Target (Pseudomonas aeruginosa [1]; Dilution 32) was 0 and the Target (Pseudomonas aeruginosa [1]; Dilution 64) was 0. For the same compound, the “4 Hour Call” value (Pseudomonas aeruginosa [2]; Dilution 0.03) was 1, the “5 Hour Call” value (Pseudomonas aeruginosa [2]; Dilution 0.03) was 1 and the “6 Hour Call” value (Pseudomonas aeruginosa [2]; Dilution 0.03) was 1. For the same compound, the “4 Hour Call” value (Pseudomonas aeruginosa [2]; Dilution 0.06) was 1, the “5 Hour Call” value (Pseudomonas aeruginosa [2]; Dilution 0.06) was 1 and the “6 Hour Call” value (Pseudomonas aeruginosa [2]; Dilution 0.06) was 1. The “4 Hour Call” value (Pseudomonas aeruginosa [2]; Dilution 0.12) was 1, the “5 Hour Call” value (Pseudomonas aeruginosa [2]; Dilution 0.12) was 1 and the “6 Hour Call” value (Pseudomonas aeruginosa [2]; Dilution 0.12) was 1. For the same compound, the “4 Hour Call” value (Pseudomonas aeruginosa [2]; Dilution 0.25) was 1, the “5 Hour Call” value (Pseudomonas aeruginosa [2]; Dilution 0.25) was 1 and the “6 Hour Call” value (Pseudomonas aeruginosa [2]; Dilution 0.25) was 1. For the same compound, the “4 Hour Call” value (Pseudomonas aeruginosa [2]; Dilution 0.5) was 1, the “5 Hour Call” value (Pseudomonas aeruginosa [2]; Dilution 0.5) was 1 and the “6 Hour Call” value (Pseudomonas aeruginosa [2]; Dilution 0.5) was 1. For the same compound, the “4 Hour Call” value (Pseudomonas aeruginosa [2]; Dilution 1) was 0.2105, the “5 Hour Call” value (Pseudomonas aeruginosa [2]; Dilution 1) was 0.9399 and the “6 Hour Call” value (Pseudomonas aeruginosa [2]; Dilution 1) was 0.9518. The “4 Hour Call” value (Pseudomonas aeruginosa [2]; Dilution 2) was 0.003836, the “5 Hour Call” value (Pseudomonas aeruginosa [2]; Dilution 2) was 4.89E−05 and the “6 Hour Call” value (Pseudomonas aeruginosa [2]; Dilution 2) was 3.77E−06. For the same compound, the “4 Hour Call” value (Pseudomonas aeruginosa [2]; Dilution 4) was 0.002258, the “5 Hour Call” value (Pseudomonas aeruginosa [2]; Dilution 4) was 7.26E−06 and the “6 Hour Call” value (Pseudomonas aeruginosa [2]; Dilution 4) was 2.27E−07. The “4 Hour Call” value (Pseudomonas aeruginosa [2]; Dilution 8) was 0.0001531, the “5 Hour Call” value (Pseudomonas aeruginosa [2]; Dilution 8) was 0.0005926 and the “6 Hour Call” value (Pseudomonas aeruginosa [2]; Dilution 8) was 0.000432. For the same compound, the “4 Hour Call” value (Pseudomonas aeruginosa [2]; Dilution 16) was 0.003935, the “5 Hour Call” value (Pseudomonas aeruginosa [2]; Dilution 16) was 0.001447 and the “6 Hour Call” value (Pseudomonas aeruginosa [2]; Dilution 16) was 2.32E−06. For the same compound, the “4 Hour Call” value (Pseudomonas aeruginosa [2]; Dilution 32) was 0.009609, the “5 Hour Call” value (Pseudomonas aeruginosa [2]; Dilution 32) was 5.69E−05 and the “6 Hour Call” value (Pseudomonas aeruginosa [2]; Dilution 32) was 1.23E−06. The “4 Hour Call” value (Pseudomonas aeruginosa [2]; Dilution 64) was 0.001147, the “5 Hour Call” value (Pseudomonas aeruginosa [2]; Dilution 64) was 1.21E−05 and the “6 Hour Call” value (Pseudomonas aeruginosa [2]; Dilution 64) was 1.64E−06.
